Experimental data from the supplement of paper PMC13380429.

Legend:
Conditions in all cases: 72 h
[1] = test system: Caco-2; experiment: drug sensitivity score (DSS) for viability; higher = more toxic; extreme values may be limits of the assay
[2] = test system: U2OS; experiment: as above
[3] = test system: HepG2; experiment: as above
[4] = test system: Calu-3; experiment: as above
[5] = test system: Vero E6; experiment: as above
[6] = test system: Caco-2; experiment: relative viability EC50 (midpoint between 100% and the lowest measured viability); higher = less toxic
[7] = test system: U2OS; experiment: as above
[8] = test system: HepG2; experiment: as above
[9] = test system: Calu-3; experiment: as above
[10] = test system: Vero E6; experiment: as above
[11] = test system: Caco-2; experiment: cell viability relative to DMSO; higher = less toxic
[12] = test system: U2OS; experiment: as above
[13] = test system: HepG2; experiment: as above
[14] = test system: Calu-3; experiment: as above
[15] = test system: Vero E6; experiment: as above

c1ccc(-c2nc(CN3CCN(c4ncccn4)CC3)c[nH]2)cc1 [NGD-94-1]
drug sensitivity score [1]: 0 | drug sensitivity score [2]: 0 | drug sensitivity score [3]: 0 | drug sensitivity score [4]: 0 | drug sensitivity score [5]: 0 | relative viability EC50 [6]: > 10 µM | relative viability EC50 [7]: > 10 µM | relative viability EC50 [8]: > 10 µM | relative viability EC50 [9]: > 10 µM | relative viability EC50 [10]: > 10 µM | cell viability ([11]; 1 nM): 99.7% | cell viability ([11]; 10 nM): 106% | cell viability ([11]; 100 nM): 91.9% | cell viability ([11]; 1000 nM): 102% | cell viability ([11]; 10000 nM): 111% | cell viability ([12]; 1 nM): 100% | cell viability ([12]; 10 nM): 95.5% | cell viability ([12]; 100 nM): 98.4% | cell viability ([12]; 1000 nM): 92.5% | cell viability ([12]; 10000 nM): 109% | cell viability ([13]; 1 nM): 98.2% | cell viability ([13]; 10 nM): 97.3% | cell viability ([13]; 100 nM): 94.1% | cell viability ([13]; 1000 nM): 101% | cell viability ([13]; 10000 nM): 105% | cell viability ([14]; 1 nM): 79.7% | cell viability ([14]; 10 nM): 93.8% | cell viability ([14]; 100 nM): 85.5% | cell viability ([14]; 1000 nM): 95.7% | cell viability ([14]; 10000 nM): 108% | cell viability ([15]; 1 nM): 93.2% | cell viability ([15]; 10 nM): 97.5% | cell viability ([15]; 100 nM): 91.5% | cell viability ([15]; 1000 nM): 92.9% | cell viability ([15]; 10000 nM): 105%

CN(C)CC/C=C1\c2ccccc2CSc2ccccc21 [dosulepin]
drug sensitivity score [1]: 0 | drug sensitivity score [2]: 0 | drug sensitivity score [3]: 0.9 | drug sensitivity score [4]: 0.6 | drug sensitivity score [5]: 0 | relative viability EC50 [6]: > 10 µM | relative viability EC50 [7]: > 10 µM | relative viability EC50 [8]: > 10 µM | relative viability EC50 [9]: > 10 µM | relative viability EC50 [10]: > 10 µM | cell viability ([11]; 1 nM): 94.1% | cell viability ([11]; 10 nM): 108% | cell viability ([11]; 100 nM): 100% | cell viability ([11]; 1000 nM): 117% | cell viability ([11]; 10000 nM): 107% | cell viability ([12]; 1 nM): 90.7% | cell viability ([12]; 10 nM): 97.5% | cell viability ([12]; 100 nM): 96.4% | cell viability ([12]; 1000 nM): 101% | cell viability ([12]; 10000 nM): 96.6% | cell viability ([13]; 1 nM): 111% | cell viability ([13]; 10 nM): 93.5% | cell viability ([13]; 100 nM): 94.1% | cell viability ([13]; 1000 nM): 92.6% | cell viability ([13]; 10000 nM): 79.9% | cell viability ([14]; 1 nM): 90.7% | cell viability ([14]; 10 nM): 104% | cell viability ([14]; 100 nM): 101% | cell viability ([14]; 1000 nM): 89.3% | cell viability ([14]; 10000 nM): 87% | cell viability ([15]; 1 nM): 93.4% | cell viability ([15]; 10 nM): 97.3% | cell viability ([15]; 100 nM): 104% | cell viability ([15]; 1000 nM): 96.5% | cell viability ([15]; 10000 nM): 92.7%

CC(C)(C)NC[C@H](O)c1ccc(O)cc1Cl [meluadrine]
drug sensitivity score [1]: 0 | drug sensitivity score [2]: 0 | drug sensitivity score [3]: 0 | drug sensitivity score [4]: 0 | drug sensitivity score [5]: 0 | relative viability EC50 [6]: > 10 µM | relative viability EC50 [7]: > 10 µM | relative viability EC50 [8]: > 10 µM | relative viability EC50 [9]: > 10 µM | relative viability EC50 [10]: > 10 µM | cell viability ([11]; 1 nM): 97.9% | cell viability ([11]; 10 nM): 97.6% | cell viability ([11]; 100 nM): 93.9% | cell viability ([11]; 1000 nM): 97.6% | cell viability ([11]; 10000 nM): 90.7% | cell viability ([12]; 1 nM): 99.3% | cell viability ([12]; 10 nM): 101% | cell viability ([12]; 100 nM): 96.4% | cell viability ([12]; 1000 nM): 100% | cell viability ([12]; 10000 nM): 96.4% | cell viability ([13]; 1 nM): 105% | cell viability ([13]; 10 nM): 106% | cell viability ([13]; 100 nM): 103% | cell viability ([13]; 1000 nM): 95% | cell viability ([13]; 10000 nM): 105% | cell viability ([14]; 1 nM): 92.8% | cell viability ([14]; 10 nM): 104% | cell viability ([14]; 100 nM): 98.3% | cell viability ([14]; 1000 nM): 104% | cell viability ([14]; 10000 nM): 104% | cell viability ([15]; 1 nM): 109% | cell viability ([15]; 10 nM): 102% | cell viability ([15]; 100 nM): 102% | cell viability ([15]; 1000 nM): 99.9% | cell viability ([15]; 10000 nM): 104%

C=C[C@H]1CN2CC[C@H]1CC2C(OC(=O)OCC)c1ccnc2ccc(OC)cc12 (stereo in doubt) [quinine-ethyl-carbonate]
drug sensitivity score [1]: 0 | drug sensitivity score [2]: 0 | drug sensitivity score [3]: 0 | drug sensitivity score [4]: 0 | drug sensitivity score [5]: 0 | relative viability EC50 [6]: > 10 µM | relative viability EC50 [7]: > 10 µM | relative viability EC50 [8]: > 10 µM | relative viability EC50 [9]: > 10 µM | relative viability EC50 [10]: > 10 µM | cell viability ([11]; 1 nM): 114% | cell viability ([11]; 10 nM): 97.1% | cell viability ([11]; 100 nM): 94.2% | cell viability ([11]; 1000 nM): 105% | cell viability ([11]; 10000 nM): 114% | cell viability ([12]; 1 nM): 99.9% | cell viability ([12]; 10 nM): 97.3% | cell viability ([12]; 100 nM): 101% | cell viability ([12]; 1000 nM): 96.9% | cell viability ([12]; 10000 nM): 96.9% | cell viability ([13]; 1 nM): 93.2% | cell viability ([13]; 10 nM): 97.7% | cell viability ([13]; 100 nM): 100% | cell viability ([13]; 1000 nM): 104% | cell viability ([13]; 10000 nM): 97.4% | cell viability ([14]; 1 nM): 99.9% | cell viability ([14]; 10 nM): 104% | cell viability ([14]; 100 nM): 102% | cell viability ([14]; 1000 nM): 90.4% | cell viability ([14]; 10000 nM): 101% | cell viability ([15]; 1 nM): 104% | cell viability ([15]; 10 nM): 95.9% | cell viability ([15]; 100 nM): 105% | cell viability ([15]; 1000 nM): 107% | cell viability ([15]; 10000 nM): 100%

CC(=O)N(CC(O)CO)c1c(I)c(C(=O)NCCO)c(I)c(C(=O)NCC(O)CO)c1I (stereo not given) [ioxilan]
drug sensitivity score [1]: 0 | drug sensitivity score [2]: 0 | drug sensitivity score [3]: 0 | drug sensitivity score [4]: 0 | drug sensitivity score [5]: 0 | relative viability EC50 [6]: > 10 µM | relative viability EC50 [7]: > 10 µM | relative viability EC50 [8]: > 10 µM | relative viability EC50 [9]: > 10 µM | relative viability EC50 [10]: > 10 µM | cell viability ([11]; 1 nM): 103% | cell viability ([11]; 10 nM): 91.6% | cell viability ([11]; 100 nM): 93.6% | cell viability ([11]; 1000 nM): 90.5% | cell viability ([11]; 10000 nM): 90.6% | cell viability ([12]; 1 nM): 97.1% | cell viability ([12]; 10 nM): 97.1% | cell viability ([12]; 100 nM): 101% | cell viability ([12]; 1000 nM): 92.8% | cell viability ([12]; 10000 nM): 102% | cell viability ([13]; 1 nM): 105% | cell viability ([13]; 10 nM): 101% | cell viability ([13]; 100 nM): 86% | cell viability ([13]; 1000 nM): 109% | cell viability ([13]; 10000 nM): 90.8% | cell viability ([14]; 1 nM): 105% | cell viability ([14]; 10 nM): 96.9% | cell viability ([14]; 100 nM): 99.7% | cell viability ([14]; 1000 nM): 101% | cell viability ([14]; 10000 nM): 88.9% | cell viability ([15]; 1 nM): 113% | cell viability ([15]; 10 nM): 103% | cell viability ([15]; 100 nM): 93% | cell viability ([15]; 1000 nM): 106% | cell viability ([15]; 10000 nM): 101%

CCCCOc1ccc(OCCCN2CCOCC2)cc1 [pramoxine]
drug sensitivity score [1]: 0 | drug sensitivity score [2]: 0 | drug sensitivity score [3]: 0 | drug sensitivity score [4]: 0 | drug sensitivity score [5]: 0 | relative viability EC50 [6]: > 10 µM | relative viability EC50 [7]: > 10 µM | relative viability EC50 [8]: > 10 µM | relative viability EC50 [9]: > 10 µM | relative viability EC50 [10]: > 10 µM | cell viability ([11]; 1 nM): 105% | cell viability ([11]; 10 nM): 109% | cell viability ([11]; 100 nM): 97.8% | cell viability ([11]; 1000 nM): 95.8% | cell viability ([11]; 10000 nM): 98% | cell viability ([12]; 1 nM): 105% | cell viability ([12]; 10 nM): 105% | cell viability ([12]; 100 nM): 104% | cell viability ([12]; 1000 nM): 102% | cell viability ([12]; 10000 nM): 99.3% | cell viability ([13]; 1 nM): 97.1% | cell viability ([13]; 10 nM): 98.3% | cell viability ([13]; 100 nM): 98.1% | cell viability ([13]; 1000 nM): 94.7% | cell viability ([13]; 10000 nM): 98.9% | cell viability ([14]; 1 nM): 104% | cell viability ([14]; 10 nM): 99.1% | cell viability ([14]; 100 nM): 87.1% | cell viability ([14]; 1000 nM): 95.1% | cell viability ([14]; 10000 nM): 102% | cell viability ([15]; 1 nM): 103% | cell viability ([15]; 10 nM): 97.3% | cell viability ([15]; 100 nM): 98.8% | cell viability ([15]; 1000 nM): 102% | cell viability ([15]; 10000 nM): 103%

COc1cc2c(cc1OC)C1CC(=O)C(CC(C)C)CN1CC2 (stereo not given) [tetrabenazine]
drug sensitivity score [1]: 0 | drug sensitivity score [2]: 0 | drug sensitivity score [3]: 0 | drug sensitivity score [4]: 0 | drug sensitivity score [5]: 0 | relative viability EC50 [6]: > 10 µM | relative viability EC50 [7]: > 10 µM | relative viability EC50 [8]: > 10 µM | relative viability EC50 [9]: > 10 µM | relative viability EC50 [10]: > 10 µM | cell viability ([11]; 1 nM): 97.6% | cell viability ([11]; 10 nM): 99.3% | cell viability ([11]; 100 nM): 96.3% | cell viability ([11]; 1000 nM): 96.5% | cell viability ([11]; 10000 nM): 100% | cell viability ([12]; 1 nM): 95.9% | cell viability ([12]; 10 nM): 99.3% | cell viability ([12]; 100 nM): 94.7% | cell viability ([12]; 1000 nM): 93.9% | cell viability ([12]; 10000 nM): 103% | cell viability ([13]; 1 nM): 95.1% | cell viability ([13]; 10 nM): 99.4% | cell viability ([13]; 100 nM): 98.8% | cell viability ([13]; 1000 nM): 99.9% | cell viability ([13]; 10000 nM): 105% | cell viability ([14]; 1 nM): 107% | cell viability ([14]; 10 nM): 103% | cell viability ([14]; 100 nM): 96.3% | cell viability ([14]; 1000 nM): 105% | cell viability ([14]; 10000 nM): 104% | cell viability ([15]; 1 nM): 96.6% | cell viability ([15]; 10 nM): 97.8% | cell viability ([15]; 100 nM): 96.2% | cell viability ([15]; 1000 nM): 99.1% | cell viability ([15]; 10000 nM): 95%
